ChEMBL document CHEMBL3045781, “Sensitivity monitoring of powdery mildew pathogens to cyflufenamid and the evaluation of resistance risk” (J Pestic Sci, 2006)
Values after ≈ are worked out from the molar mass of the structure shown.

Assays:
[1] = system: Blumeria graminis f. sp. tritici; assay: Antifungal activity against Blumeria graminis f. sp. tritici after 6.25 g/ha 6 applications of compound in pot by selection pressure test (Control = 0.097 ppm); type: functional, organism-based
[2] = system: Blumeria graminis f. sp. tritici; assay: Antifungal activity against Blumeria graminis f. sp. tritici after 6.25 g/ha 16 applications of compound by selection pressure test; type: functional, organism-based
[3] = system: Blumeria graminis f. sp. tritici; assay: Antifungal activity against Blumeria graminis f. sp. tritici strains in compound treated wheat seedlings measured after 7 days by pot assay; type: functional, organism-based
Podosphaera fusca [4] = assay: Antifungal activity against triflumizole-resistant Sphaerotheca cucurbitae SFTFR-1; type: functional
Podosphaera fusca [5] = assay: Antifungal activity against wild type Sphaerotheca cucurbitae SFS-1; type: functional
[6] = system: Blumeria graminis f. sp. tritici; assay: Antifungal activity against Blumeria graminis f. sp. tritici strains by leaf segment floating assay; type: functional, organism-based
Podosphaera fusca [7] = assay: Antifungal activity against Sphaerotheca cucurbitae in compound treated cucumber leaves at 20 degC measured after 5 days by leaf disk assay; type: functional, organism-based
Podosphaera fusca [8] = assay: Antifungal activity against kresoxim-methyl-resistant Sphaerotheca cucurbitae SFKMR-1; type: functional
Podosphaera fusca [9] = assay: Antifungal activity against thiophanate-methyl-resistant Sphaerotheca cucurbitae SFTMR-1; type: functional

Row | Structure (SMILES) | EC50 [1] | EC50 [2] | EC50 [3] | MIC ([3]; Blumeria graminis, 168 h) | MIC (Podosphaera fusca [4]) | MIC (Podosphaera fusca [5]) | EC50 [6] | EC50 (Podosphaera fusca [7]) | MIC (Podosphaera fusca [7]; Podosphaera fusca, 120 h) | MIC (Podosphaera fusca [8]) | MIC (Podosphaera fusca [9])
1 | O=C(Cc1ccccc1)N/C(=N\OCC1CC1)c1c(C(F)(F)F)ccc(F)c1F [CYFLUFENAMID] | 0.007 ppm | 0.0008 ppm | 0.029 ppm | 0.2 mg/L (≈ 0.485 µM) | 0.8 mg/L (≈ 1.94 µM) | 0.8 mg/L (≈ 1.94 µM) | 0.0011 ppm | 0.0019 ppm | 0.001 mg/L (≈ 0.00243 µM) | 0.8 mg/L (≈ 1.94 µM) | 0.8 mg/L (≈ 1.94 µM)
2 | CCCOC/C(=N\c1ccc(Cl)cc1C(F)(F)F)n1ccnc1 [TRIFLUMIZOLE] | – | – | – | – | 5 mg/L (≈ 14.5 µM) | 0.1 mg/L (≈ 0.289 µM) | – | – | – | – | –
3 | COC(=O)NC(=S)Nc1ccccc1NC(=S)NC(=O)OC [THIOPHANATE METHYL] | – | – | – | – | – | 1 mg/L (≈ 2.92 µM) | – | – | – | – | > 100 mg/L
4 | CO/N=C(/C(=O)OC)c1ccccc1COc1ccccc1C [KRESOXIM-METHYL] | – | – | – | – | – | 0.8 mg/L (≈ 2.55 µM) | – | – | – | > 100 mg/L | –
